The source of these data is publication PMC12093056, “Mechanistic insights into the ATP-mediated and species-dependent inhibition of TrpRS by chuangxinmycin” (RSC Chemical Biology, 2025).

SMILES strings stand for the structures.

The target in assay [1] is T1, EcTrpRS (Escherichia coli, UniProt P00954).
T1 construct: gene trpS; C-terminal 6xHis tag (pET-28a), no tag cleavage told; E. coli BL21(DE3); two chains in asymmetric unit
In words: X-ray crystal structure. Type of assay: binding.

Assay [2] addresses T1, EcTrpRS. In words: ATP consumption, Kinase-Glo luminescence. Conditions: 2 μM ATP, 10 μM Trp, 40 mM MgCl2, 50 mM NH2OH instead of tRNA, pH 7.5, 37 °C; Trp site. Format: biochemical.
The target in assay [3] is T2, SaTrpRS (Staphylococcus aureus, UniProt P67594).
T2 construct: gene trpS; codon-optimised synthetic gene, C-terminal 6xHis tag (pET-28a), no tag cleavage told; E. coli BL21(DE3); dimer
The experiment in a line: X-ray crystal structure. Type of assay: binding. The note with it: Trp site.

In assay [4] the target is T2, SaTrpRS. The experiment in a line: ATP consumption, Kinase-Glo luminescence. Format: biochemical. Conditions: 2 μM ATP, 10 μM Trp, 40 mM MgCl2, 50 mM NH2OH instead of tRNA, pH 7.5, 37 °C; Trp site. (Kinase-Glo measures the ATP left after a reaction by luminescence.)
The target of assay [5] is T2, SaTrpRS. In words: ATP consumption, Kinase-Glo luminescence. Format: biochemical. Conditions: 2 μM ATP, 10 μM Trp, 40 mM MgCl2, 50 mM NH2OH instead of tRNA, pH 7.5, 37 °C, 1.5 h.

T2 sequence (P67594 whole entry): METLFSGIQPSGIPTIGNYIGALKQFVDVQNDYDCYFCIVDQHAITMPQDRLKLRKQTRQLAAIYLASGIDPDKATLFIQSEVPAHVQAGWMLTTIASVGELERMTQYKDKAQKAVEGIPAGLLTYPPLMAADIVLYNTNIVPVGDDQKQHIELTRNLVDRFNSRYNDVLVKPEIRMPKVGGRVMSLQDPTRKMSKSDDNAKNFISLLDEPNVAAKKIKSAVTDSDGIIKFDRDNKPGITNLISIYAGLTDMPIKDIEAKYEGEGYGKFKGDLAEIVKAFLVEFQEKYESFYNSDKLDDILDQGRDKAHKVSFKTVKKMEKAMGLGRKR

Consider `O=C(O)C1Cc2c[nH]c3cccc(c23)S1` (centres unmarked) [dCXM, 3-demethylchuangxinmycin], for which the X-ray crystal structure entry at EcTrpRS [1] (Trp site) is “The complex structures of these analogues with EcTrpRS and SaTrpRS were solved”. The inhibition result at EcTrpRS [2] was “Inhibition of EcTrpRS by CXM, dCXM, and mCXM, as measured by ATP hydrolysis assays”. With `N[C@@H](Cc1c[nH]c2ccccc12)C(=O)O` [tryptophan], on SaTrpRS [3] (2.32 Å), the X-ray crystal structure entry was “SaTrpRS in complex with Trp (SaTrpRS/Trp complex)”.

Consider `CC1(C)c2c[nH]c3cccc(c23)S[C@H]1C(=O)O` [mCXM, 3-methylchuangxinmycin], for which the X-ray crystal structure result on SaTrpRS [3] is “The complex structures of these analogues with EcTrpRS and SaTrpRS were solved”; on EcTrpRS [1] (Trp site), “The complex structures of these analogues with EcTrpRS and SaTrpRS were solved”. Moreover, the results for the inhibition result on EcTrpRS [2] and against SaTrpRS [4] were “The inhibitory activity of mCXM against EcTrpRS is lower than that of CXM” and “mCXM exhibits stronger inhibition of SaTrpRS compared to EcTrpRS”, respectively. Regarding `Nc1ncnc2c1ncn2[C@@H]1O[C@H](COP(=O)(O)OP(=O)(O)OP(=O)(O)O)[C@@H](O)[C@H]1O` [ATP], the “ATP consumption, Kinase-Glo luminescence” value on SaTrpRS [5] is recorded as “The activity of TrpRS was measured vis ATP hydrolysis using Kinase-Glo® kit”. As for `Nc1ncnc2c1ncn2[C@@H]1O[C@H](COP(=O)(O)OC(=O)[C@@H](N)Cc2c[nH]c3ccccc23)[C@@H](O)[C@H]1O` [tryptophanyl-5′-AMP], on EcTrpRS [1] (2.24 Å, endogenous, closed chain B, enzyme-bound reaction intermediate), the X-ray crystal structure result is “chain B is in a closed state and binds to an endogenous tryptophanyl-5′-AMP (TrpAMP) molecule”. For the compound `CC1c2c[nH]c3cccc(c23)SC1C(=O)O` (centres unmarked) [CXM, chuangxinmycin], on EcTrpRS [1] (2.24 Å, open chain A, Trp site, also ternary with ATP and Mg2+ (1.92 and 2.15 Å)), the X-ray crystal structure result was “Chain A exists in an open state and binds to a CXM molecule”. In addition, the inhibition result on EcTrpRS [2] is “Inhibition of EcTrpRS by CXM, dCXM, and mCXM, as measured by ATP hydrolysis assays”.
